The target in this series is DGAT2. The following applies: ASO.

Where “and” joins values, the source holds several entries; their conditions need not be identical. Equal entries are not always repeated. After the bases stand the sugars from the 5' end (letter, count) and the backbone: PS all phosphorothioate, else s phosphorothioate and o phosphodiester by linkage. Methylation of C is not given here. e = 2'-O-(2-methoxyethyl) (MOE); d = 2'-deoxy (DNA)

Regarding “TTTTAAATAACCCACAGACA (sugars e5 d10 e5, PS)”, the target mRNA inhibition runs as follows: (HepG2, 0.12 µM) 10%; (HepG2, 2.5 µM) 92%; (HepG2, 10 µM) 60%; (HepG2, 20 µM) 81%. Turning to “TGCAGCCTGGACAAGTCCTG (sugars e3 d14 e3, PS)”, the target mRNA inhibition was 77% (HepG2, 0.12 µM); 27% (HepG2, 2.5 µM); 51% (HepG2, 10 µM); 68% (HepG2, 20 µM). Take “GCCCAGTTTCGGACCCACTG (sugars e5 d10 e5, PS)”: the target mRNA inhibition turned out to be 37% (HepG2, 2.5 µM); 46% (HepG2, 10 µM); 65% (HepG2, 20 µM). Take “GACAAGCGACAGCCCTGTGC (sugars e5 d10 e5, PS)”: the target mRNA inhibition amounted to 75% (HepG2, 2.5 µM) and 79% (HepG2, 10 µM). With “GCACTGACATGGTAAGTCCT (sugars e5 d10 e5, PS)”, the target mRNA inhibition (HepG2, 2.5 µM) is 87% and 79%; the target mRNA inhibition (HepG2, 10 µM) was 93% and 89%. On to “TGCCATTTAATGAGCTTCAC (sugars e5 d10 e5, PS)”, for which the target mRNA inhibition was 79% and 81% (HepG2, 2.5 µM); 91% and 92% (HepG2, 10 µM). In the case of “GATGGCACTGCAGGCCACTC (sugars e5 d10 e5, PS)”, for the setting “HepG2, 0.12 µM”, the target mRNA inhibition was found to be 28%.

Where the note is “HepG2, 0.12 µM”, “CTTGCTCACTTCTGTGGCCT (sugars e5 d10 e5, PS)” displayed a target mRNA inhibition of 48%. Sequence “AGGGCACCAGCCCCCAGGTG (sugars e5 d10 e5, PS)” had a target mRNA inhibition (HepG2, 0.12 µM) of 29%. With “CCAGGTAAGGCCGTATGCCT (sugars e3 d14 e3, PS)”, the target mRNA inhibition (HepG2, 0.12 µM) turned out to be 71%. “GTTCTTGTCCTGGTCCCAGT (sugars e5 d10 e5, PS)”: the target mRNA inhibition reads like this: (HepG2, 2.5 µM) 83% and 68%; (HepG2, 10 µM) 95% and 93%. Under “HepG2, 0.12 µM”, “CCCCCATCCTCATCCTGGAG (sugars e5 d10 e5, PS)” came in with a target mRNA inhibition of 7%. The sequence “TCACCAGCTGGATGGGAAAG (sugars e5 d10 e5, PS)” came in with a target mRNA inhibition (HepG2, 0.12 µM) of 22%. Take “TTTCTAGGGAAGCATGTGCA (sugars e5 d10 e5, PS)”: the target mRNA inhibition runs as follows: (HepG2, 2.5 µM) 67% and 68%; (HepG2, 10 µM) 90% and 88%.

Sequence “CTTCACCAGCTGGATGGGAA (sugars e5 d10 e5, PS)” had a target mRNA inhibition (HepG2, 0.12 µM) of 36%.

For “AAAGTCTGACATGGTGC (sugars e3 d10 e4, PS)”, the target mRNA inhibition is 48% (HepG2, 2.5 µM) and 81% (HepG2, 10 µM). For “ACAACAGCAAATATACACCA (sugars e5 d10 e5, PS)”, the target mRNA inhibition amounted to 87% (HepG2, 2.5 µM) and 56% (HepG2, 10 µM).

Turning to “CAAGGCTGAGTCTGTGCTGC (sugars e5 d10 e5, PS)”, under “HepG2, 0.12 µM”, the target mRNA inhibition came to 24%. As to “CCCACTGGGACATCTGGCCC (sugars e5 d10 e5, PS)”, the target mRNA inhibition was determined as 66% (HepG2, 2.5 µM) and 88% (HepG2, 10 µM). On to “CGCAGGACCCCGGAGTAGGC (sugars e2 d13 e5, PS)”, for which the target mRNA inhibition (HepG2, 0.12 µM) was found to be 71%. For the sequence “TTGCTCAGTTCTTCCAACCA (sugars e5 d10 e5, PS)”, the target mRNA inhibition by setting is: (HepG2, 2.5 µM) 81% and 72%; (HepG2, 10 µM) 93% and 94%. Take “TCATACTAGACTATGCAGCC (sugars e5 d10 e5, PS)”: the target mRNA inhibition worked out at 72% (HepG2, 2.5 µM) and 85% (HepG2, 10 µM). Take “GGTGATGGGCTTGGAGTAGG (sugars e5 d10 e5, PS)”: the target mRNA inhibition (HepG2, 0.12 µM) came to 36%. In turn, “TTTAAATAACCCACAGACAC (sugars e5 d10 e5, PS)” displayed a target mRNA inhibition (HepG2, 0.12 µM) of 14%.

In the case of “GGGTCATTTTGGAGACCACA (sugars e5 d10 e5, PS)”, the target mRNA inhibition runs as follows: (HepG2, 2.5 µM) 59%; (HepG2, 10 µM) 83%. Sequence “ACCATTTTCACAAGGAGAAG (sugars e5 d10 e5, PS)” yielded a target mRNA inhibition (HepG2, 0.12 µM) of 30%. In turn, “AAAACCAGTTACTCCACCTA (sugars e5 d10 e5, PS)” displayed a target mRNA inhibition (HepG2, 0.12 µM) of 0%. For “TCATCTTTCCAGATCCGGAC (sugars e5 d10 e5, PS)”, the target mRNA inhibition reads like this: (HepG2, 2.5 µM) 76%; (HepG2, 10 µM) 89%. For the setting “HepG2, 0.12 µM”, “CAGTTTCGGACCCACTGTGA (sugars e2 d13 e5, PS)” gave a target mRNA inhibition of 77%. Consider “TTTCTTTTAAATAACCCACA (sugars e5 d10 e5, PS)”, for which the target mRNA inhibition (HepG2, 0.12 µM) was 1%.

Take “CCATGTCAGAGAGGCTCAGC (sugars e5 d10 e5, PS)”: the target mRNA inhibition reads like this: (HepG2, 2.5 µM) 45%; (HepG2, 10 µM) 86%. Taken in the same sequence, the figures for “GAAAACTTAGGCATGCTTCC (sugars e5 d10 e5, PS)” were 59% and 92%.

Take “AGTTTCACAAAGCCCTTGCG (sugars e5 d10 e5, PS)”: the target mRNA inhibition (HepG2, 0.12 µM) came out at 25%. In turn, “AGGCCACAGTGGCAACAGAG (sugars e5 d10 e5, PS)” registered a target mRNA inhibition (HepG2, 0.12 µM) of 54%. For the sequence “GTGTGTCTTCACCAGCTGGA (sugars e5 d10 e5, PS)”, the target mRNA inhibition (HepG2, 0.12 µM) is 53%. On to “GGCAGATAACCACAGCGATA (sugars e5 d10 e5, PS)”, for which the target mRNA inhibition is, setting by setting: (HepG2, 2.5 µM) 75%; (HepG2, 10 µM) 84%.

“ACCATAATCTGCACAGGTTC (sugars e5 d10 e5, PS)”: the target mRNA inhibition is 62% (HepG2, 2.5 µM) and 84% (HepG2, 10 µM).

Values taken from the OligoGym collection.
